Reference: ChEMBL document CHEMBL1133072, “Synthesis and biological activity of 1beta-methyl-2-[5'-isoxazoloethenylpyrrolidin-3'-ylthio]carbapenems” (2000)
Values after ≈ are worked out from the molar mass of the structure shown.

Tests used:
[1] = tested on: Escherichia coli; assay: Minimum inhibitory concentration against Escherichia coli 055 was determined by agar dilution method using Mueller-Hinton; type: functional
[2] = tested on: Escherichia coli; assay: Minimum inhibitory concentration against Escherichia coli 1507E was determined by agar dilution method using Mueller-Hinton; type: functional
[3] = tested on: Klebsiella aerogenes; assay: Minimum inhibitory concentration against Klebsiella aerogenes 1522E was determined by agar dilution method using Mueller-Hinton; type: functional
[4] = tested on: Pseudomonas aeruginosa; assay: Minimum inhibitory concentration against Pseudomonas aeruginosa 1592E was determined by agar dilution method using Mueller-Hinton; type: functional
[5] = tested on: Pseudomonas aeruginosa; assay: Minimum inhibitory concentration against Pseudomonas aeruginosa 1771M was determined by agar dilution method using Mueller-Hinton; type: functional
[6] = tested on: Pseudomonas aeruginosa; assay: Minimum inhibitory concentration against Pseudomonas aeruginosa 9027 was determined by agar dilution method using Mueller-Hinton; type: functional
[7] = tested on: Salmonella typhimurium; assay: Minimum inhibitory concentration against Salmonella Typhimurium was determined by agar dilution method using Mueller-Hinton; type: functional, Salmonella enterica subsp. enterica serovar Typhimurium; conditions: Salmonella enterica
[8] = tested on: Streptococcus pyogenes; assay: Minimum inhibitory concentration against Streptococcus pyogenes 308A was determined by agar dilution method using Mueller-Hinton; type: functional
[9] = tested on: Staphylococcus aureus; assay: Minimum inhibitory concentration against Staphylococcus aureus 285 was determined by agar dilution method using Mueller-Hinton; type: functional
[10] = tested on: Staphylococcus aureus; assay: Minimum inhibitory concentration against Staphylococcus aureus 503 was determined by agar dilution method using Mueller-Hinton; type: functional
[11] = tested on: Staphylococcus aureus; assay: Minimum inhibitory concentration against Staphylococcus aureus SG 511 was determined by agar dilution method using Mueller-Hinton; type: functional
[12] = tested on: Enterobacter cloacae; assay: Minimum inhibitory concentration against Enterobacter cloacae 1321E was determined by agar dilution method using Mueller-Hinton; type: functional
[13] = biological target: Dipeptidase 1 (Sus scrofa) (UniProt P22412); assay: Relative half life of hydrolysis to meropenem by partially purified porcine renal DHP-I was determined
Chain of Dipeptidase 1 (Sus scrofa) (P22412 whole entry, looked up): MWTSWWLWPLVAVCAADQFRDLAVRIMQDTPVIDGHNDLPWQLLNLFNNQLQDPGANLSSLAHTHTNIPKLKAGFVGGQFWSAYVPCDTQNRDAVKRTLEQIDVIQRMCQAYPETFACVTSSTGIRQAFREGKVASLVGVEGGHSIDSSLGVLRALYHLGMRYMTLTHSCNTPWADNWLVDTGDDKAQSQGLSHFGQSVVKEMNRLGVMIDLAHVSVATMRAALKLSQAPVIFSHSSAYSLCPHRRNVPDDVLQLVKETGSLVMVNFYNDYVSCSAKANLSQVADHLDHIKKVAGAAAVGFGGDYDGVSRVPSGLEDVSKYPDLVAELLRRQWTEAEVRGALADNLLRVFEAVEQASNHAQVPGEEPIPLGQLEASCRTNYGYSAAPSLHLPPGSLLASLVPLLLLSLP

[14] = biological target: Dipeptidase 1 (Sus scrofa) (UniProt P22412); assay: Stability to porcine renal DHP-I was determined

Compound | MIC [1] [µg/mL] | MIC [2] [µg/mL] | MIC [3] [µg/mL] | MIC [4] [µg/mL] | MIC [5] [µg/mL] | MIC [6] [µg/mL] | MIC [7] [µg/mL] | MIC [8] [µg/mL] | MIC [9] [µg/mL] | MIC [10] [µg/mL] | MIC [11] [µg/mL] | MIC [12] [µg/mL] | Relativity [13] | Activity [14]
COc1cc(/C=C/[C@@H]2C[C@H](SC3=C(C(=O)O)N4C(=O)[C@H]([C@@H](C)O)[C@H]4[C@H]3C)CN2)on1 | 0.098 (≈ 0.225 µM) | 0.391 (≈ 0.898 µM) | 0.391 (≈ 0.898 µM) | 12.5 (≈ 28.7 µM) | 6.25 (≈ 14.4 µM) | 12.5 (≈ 28.7 µM) | 0.195 (≈ 0.448 µM) | 0.007 (≈ 0.0161 µM) | 0.025 (≈ 0.0574 µM) | 0.049 (≈ 0.113 µM) | 0.049 (≈ 0.113 µM) | 0.195 (≈ 0.448 µM) | 2.14 | –
C[C@@H](O)[C@H]1C(=O)N2C(C(=O)O)=C(S[C@@H]3CN[C@H](/C=C/c4ccon4)C3)[C@H](C)[C@H]12 | 0.098 (≈ 0.242 µM) | 0.098 (≈ 0.242 µM) | 0.098 (≈ 0.242 µM) | 3.12 (≈ 7.71 µM) | 0.781 (≈ 1.93 µM) | 3.12 (≈ 7.71 µM) | 0.098 (≈ 0.242 µM) | 0.025 (≈ 0.0617 µM) | 0.195 (≈ 0.481 µM) | 0.098 (≈ 0.242 µM) | 0.195 (≈ 0.481 µM) | 0.049 (≈ 0.121 µM) | 2.33 | –
COC(=O)c1cc(/C=C\[C@@H]2C[C@H](SC3=C(C(=O)O)N4C(=O)[C@H]([C@@H](C)O)[C@H]4[C@H]3C)CN2)on1 | 0.025 (≈ 0.0539 µM) | 0.025 (≈ 0.0539 µM) | 0.049 (≈ 0.106 µM) | 0.195 (≈ 0.421 µM) | 0.195 (≈ 0.421 µM) | 0.098 (≈ 0.211 µM) | 0.025 (≈ 0.0539 µM) | 0.007 (≈ 0.0151 µM) | 0.049 (≈ 0.106 µM) | 0.025 (≈ 0.0539 µM) | 0.049 (≈ 0.106 µM) | 0.025 (≈ 0.0539 µM) | 1.35 | –
C[C@@H](O)[C@H]1C(=O)N2C(C(=O)O)=C(S[C@@H]3CN[C@H](C(=O)N(C)C)C3)[C@H](C)[C@H]12 [MEROPENEM] | 0.025 (≈ 0.0652 µM) | 0.025 (≈ 0.0652 µM) | 0.049 (≈ 0.128 µM) | 0.195 (≈ 0.509 µM) | 0.049 (≈ 0.128 µM) | 0.195 (≈ 0.509 µM) | 0.049 (≈ 0.128 µM) | 0.013 (≈ 0.0339 µM) | 0.195 (≈ 0.509 µM) | 0.098 (≈ 0.256 µM) | 0.195 (≈ 0.509 µM) | 0.025 (≈ 0.0652 µM) | – | 1
C[C@@H](O)[C@H]1C(=O)N2C(C(=O)O)=C(S[C@@H]3CN[C@H](/C=C/c4cc(Cl)no4)C3)[C@H](C)[C@H]12 | 0.025 (≈ 0.0568 µM) | 0.025 (≈ 0.0568 µM) | 0.025 (≈ 0.0568 µM) | 0.781 (≈ 1.78 µM) | 0.195 (≈ 0.443 µM) | 0.781 (≈ 1.78 µM) | 0.025 (≈ 0.0568 µM) | 0.004 (≈ 0.00909 µM) | 0.025 (≈ 0.0568 µM) | 0.013 (≈ 0.0296 µM) | 0.013 (≈ 0.0296 µM) | 0.013 (≈ 0.0296 µM) | 1.33 | –
C[C@@H](O)[C@H]1C(=O)N2C(C(=O)O)=C(S[C@@H]3CN[C@H](/C=C\c4cc(CO)no4)C3)[C@H](C)[C@H]12 | 0.049 (≈ 0.113 µM) | 0.049 (≈ 0.113 µM) | 0.098 (≈ 0.225 µM) | 3.12 (≈ 7.18 µM) | 1.56 (≈ 3.59 µM) | 3.12 (≈ 7.18 µM) | 0.098 (≈ 0.225 µM) | 0.013 (≈ 0.0299 µM) | 0.049 (≈ 0.113 µM) | 0.049 (≈ 0.113 µM) | 0.049 (≈ 0.113 µM) | 0.049 (≈ 0.113 µM) | 1.59 | –
